This is an account of results in ChEMBL document CHEMBL6109062, “Novel tertiary diarylethylamines as functionally selective agonists of the kappa opioid receptor” (Bioorg Med Chem Lett, 2025).

A short description of data set [1]: in vitro. As to conditions: rat, liver microsomes. (In general: Liver microsomes are vesicles of endoplasmic reticulum, rich in cytochrome P450 enzymes.)
A short description of data set [2]: in vitro. As to conditions: human, liver microsomes.
The nature of data set [3]: in vitro. The note with it: human, hepatocytes.
Data set [4] is described as follows: in vivo. The note with it: rat, po.
The nature of data set [5]: Clearance in rat. It is filed as ADME. As to conditions: in vivo.
Data set [6] can be described thus: in vitro. As to conditions: rat, liver microsomes. The source holds these as a separate data set.
Data set [7] in a line: in vitro. The note with it: dog, MDCK-MDR1.
Data set [8] is described as follows: in vivo. As to conditions: rat, po, 10 mg/kg.
Data set [9] can be described thus: in vivo. The note with it: rat, po, 10 mg/kg. This is another data set of the same source.

By fraction remaining is commonly meant the share of the starting amount still present when the sample was taken. Lower therefore signals more turnover. As usually defined, the hepatocyte CLint is a measure of how fast metabolising enzymes remove a compound, apart from limits set by blood flow. Low values mean slow turnover, high ones rapid turnover. In general, bioavailability refers to dose-corrected exposure relative to a reference, in per cent. Broadly, the clearance is a measure of how efficiently the substance is removed, as volume per time. The low end stands for inefficient removal, the high end for efficient removal. For orientation: Papp A→B means how fast a substance crosses the layer from the apical side. One may read the half-life as the time needed for the level to fall by half in the phase considered. Lower therefore signals rapid decline.

In the case of `O=c1[nH]c2ccc(CCN(CCc3ccccc3)CC3CCC3)cc2[nH]1`, the fraction remaining at 0.25 h was less than 5% in data set [1] and 66% in data set [2].

`CC(Cc1ccc2nc[nH]c2c1)N(CCc1ccccc1)CC1CC1` (stereo unspecified) gave a hepatocyte CLint in data set [3] of 22.1 µL/min/1e6 cells. Besides, the values for the fraction remaining at 0.25 h in data set [1] and in data set [2] were 10% and 70%, respectively.

With `Oc1cccc(CCN(CCc2ccccc2)CC2CCC2)c1`, in data set [2], the amount remaining at 0.25 h is less than 5%.

Consider `Oc1cccc(CCN(CC2CCC2)C2CN(Cc3ccccc3)C2)c1`, for which the bioavailability in data set [4] was less than 1%. The clearance in data set [5] was found to be 45 mL/min/kg. For the same compound, the fraction remaining at 0.25 h in [2] is less than 5%.

With `c1ccc(CCN(CCc2ccc3nc[nH]c3c2)CC2CC2)cc1`, the fraction remaining at 0.5 h in data set [6] came out at 3%. The Papp A→B in data set [7] worked out at 5.5 ×10⁻⁶ cm/s. This compound also had a half-life in [8] of 1.2 h. The compound also returned a hepatocyte CLint in [3] of 16.7 µL/min/1e6 cells. The amount remaining at 0.25 h in data set [1] is less than 5%; in data set [2], 77%. For the same compound, the bioavailability in data set [9] worked out at 2.7%.
